This is an account of results in a melting point compilation (Tetko et al.).

The term melting point denotes the temperature of the solid-liquid transition.

Compound `CC1C2CCC3C4CC=C5CC(N(C)C)CCC5(C)C4CCC32CN1C` (stereo unspecified) returned a melting point of 126 °C.

In turn, `Fc1nc(Cl)c2[nH]cnc2n1` had a melting point of 162 to 163 °C.

The compound `COc1ccc(CO)cc1O` showed a melting point of 136 °C.

`Cc1nc(-c2cccc(C=O)c2)no1` registered a melting point of 98 to 99 °C.

`c1ccc(CC(c2ccccc2)c2ccccc2)cc1` had a melting point of 52 °C.

`Cc1ccc2cc(F)ccc2n1` yielded a melting point of 54 °C.

In the case of `Cc1cccc(O[Si]23OCCN(CCO2)CCO3)c1`, the melting point came out at 166 °C.

On to `COc1ccc(C(=O)O)cc1OCc1ccccc1`, for which the melting point was determined as 180 °C.

Compound `CC(C)(C)c1cc([N+](=O)[O-])c2cc(C(C)(C)C)cc([N+](=O)[O-])c2c1` showed a melting point of 198 to 200 °C.

Turning to `O=[N+]([O-])c1cc(F)c(Br)cc1F`, the melting point came to 56 °C.

Compound `COc1cccc(OC)c1N` displayed a melting point of 77 °C.

With `O=C1c2ccccc2CC2c3ccccc3CCN12` (stereo unspecified), the melting point is 173 °C.

`O=[N+]([O-])c1ccc(OCCBr)cc1` came in with a melting point of 64 °C.

With `Clc1c(Cl)c(Cl)c(C(Cl)Cl)c(Cl)c1Cl`, the melting point was 120 °C.

Consider `Cn1nccc1-c1cccc(C(=O)O)c1`, for which the melting point lay in the range of 138 to 140 °C.

The compound `O=S(=O)(Cl)c1ccc(F)cc1` yielded a melting point of 36.5 °C.

For `O=C(O)c1cc(F)ccc1O`, the melting point was 179 to 182 °C.

For `CCc1cccc(C(C)=O)c1`, the melting point is -20 °C.

Compound `Cc1c(C(=O)Cl)cnn1-c1ccc(F)cc1` registered a melting point of 90 to 92 °C.

`O=C(O)C=Cc1ccc(Sc2ccc(Cl)cc2)c([N+](=O)[O-])c1`: the melting point is 233 to 235 °C.

In turn, `CC(=O)NC(Cc1c[nH]c2ccccc12)C(N)=O` (stereo unspecified) gave a melting point of 195 °C.

Take `O=[N+]([O-])OCC(CO[N+](=O)[O-])O[N+](=O)[O-]`: the melting point is 14 °C.

Take `O=C1NN=C(C(F)(F)F)C1=NNc1ccc(Cl)cc1`: the melting point stood at 215 °C.

Compound `O=[N+]([O-])/C(Br)=C/c1cccc(/C=C(\Br)[N+](=O)[O-])c1` gave a melting point of 153 °C.

`Cc1ccc(-n2c(C)nc3cc([N+](=O)[O-])ccc32)cc1` yielded a melting point of 152 °C.

On to `O=[N+]([O-])c1ccc(C(Cl)=Cc2ccc(C=C(Cl)c3ccc([N+](=O)[O-])cc3[N+](=O)[O-])cc2)c([N+](=O)[O-])c1`, for which the melting point came out at 245 °C.

`O=C1CC(c2cccc(C3=NN(c4ccccc4)C(=O)C3)c2)=NN1c1ccccc1` had a melting point of 263 °C.

The compound `Cc1nc(-c2ccc(-c3ccccc3)cc2)cs1` displayed a melting point of 113 to 118 °C.

`O=C1OC(c2ccccc2)(c2ccccc2)c2ccccc21` had a melting point of 120 °C.

Compound `O=C(O)C1CCN(c2nccc(C(F)(F)F)n2)CC1` yielded a melting point of 140 to 142 °C.

In turn, `Cn1c(/C(C#N)=N/Nc2cccc(Cl)c2)nc2ccccc21` came in with a melting point of 165 °C.

With `CC[Si](Cl)(CC)CC`, the melting point is -75 °C.

As to `C=CCCCCCCCCCCC`, the melting point was -13 °C.

`COS(=O)(=O)c1cc([N+](=O)[O-])ccc1C#Cc1ccc([N+](=O)[O-])cc1S(=O)(=O)OC`: the melting point stood at 228 °C.

Take `NC(=O)C1=CN(C2OC(COP(=O)(O)OP(=O)(O)OCC3OC(n4cnc5c(N)ncnc54)C(O)C3O)C(O)C2O)C=CC1` (stereo unspecified): the melting point was determined as 141 °C.

Regarding `O=c1onc2cnc3ccccc3n12`, the melting point is 160 to 170 °C.

For the compound `Fc1ccc2c(c1)Cc1ccccc1-2`, the melting point came out at 98 °C.

`COc1ccc(C(=O)OC(COc2ccc(C=CC(=O)c3ccccc3)cc2)COc2ccc(C(=O)C=Cc3ccccc3)cc2)cc1` (stereo unspecified) came in with a melting point of 74 °C.

As for `CNc1ccc2cc3ccc(N(C)S(C)(=O)=O)cc3nc2c1CO`, the melting point was determined as 150 °C.

Compound `O=C(O)c1cc(Cl)nnc1Cl` yielded a melting point of 139 °C.

Compound `CC1=C(C(=O)OCc2ccccc2)C(c2ccco2)NC(=O)N1` (stereo unspecified) returned a melting point of 195 °C.

`C(=C(c1ccccc1)c1ccccc1)c1ccccc1` registered a melting point of 72.5 °C.

The compound `CCOC(=O)CNc1nc(N)n[nH]1` registered a melting point of 177 to 179 °C.

Consider `CC(=O)c1ccc(C=O)cc1`, for which the melting point is 33 °C.

`O=[N+]([O-])c1ccc(NN=CC2=C(C#Cc3ccccc3)CCCC2)c([N+](=O)[O-])c1` had a melting point of 198 to 199 °C.

With `N#CC1OCC(OC(=O)c2ccccc2)C(OC(=O)c2ccccc2)C1OC(=O)c1ccccc1` (stereo unspecified), the melting point was found to be 155 °C.

Consider `O=C1/C(=N/Nc2ccc(Cl)cc2)C(C(F)(F)F)=NN1c1ccccc1`, for which the melting point worked out at 180 °C.

Compound `CN(C)c1ccc(N)cc1` had a melting point of 53 °C.

Regarding `NC(=S)c1ccc(-c2csnn2)cc1`, the melting point was in the range of 223 to 228 °C.

Compound `CCOC(=O)C=Cc1ccc(O)c(OC)c1` registered a melting point of 57 to 59 °C.

In turn, `COc1cc(Br)cc(F)c1F` came in with a melting point of 35 °C.

In turn, `N#CCc1ccc(OS(=O)(=O)c2cc(Cl)cc(Cl)c2)cc1` yielded a melting point of 81 to 83 °C.

`C=C(CC(=O)O)C(=O)O` had a melting point of 175 °C.

Compound `COC1=C(Br)C(=O)C2(C)CCC1C2(C)C` (stereo unspecified) showed a melting point of 104 °C.

Regarding `O=Cc1ccc(-c2ccccc2[N+](=O)[O-])o1`, the melting point fell in the range of 96 to 98 °C.

As for `Cc1cc(C(F)(F)F)n2nc(N)c(/N=N/c3cc(Cl)ccc3Cl)c2n1`, the melting point was found to be 215 °C.

As for `N#C/C(=C\c1ccccc1Cl)c1nc(-c2cccs2)cs1`, the melting point stood at 102 °C.

For the compound `CC(=O)OCc1ccc(C=O)o1`, the melting point was 52 to 56 °C.

The compound `O=C(c1ccccc1)c1ccc(C(=O)c2ccccc2)cc1` showed a melting point of 163 °C.

`COC(=N)C1=CC(O)C(O)C(CO)O1` (stereo unspecified) had a melting point of 196 °C.

`O=C1c2ccccc2CC2c3ccccc3C=CN12` (stereo unspecified) showed a melting point of 128 °C.

Regarding `O=C1CCSCC1`, the melting point fell in the range of 62 to 65 °C.

Compound `O=C(NCc1ccccc1)OCCO` came in with a melting point of 40 °C.

The compound `OCc1csc(-c2cccc(Cl)c2)n1` came in with a melting point of 93 to 95 °C.

Turning to `Cc1ccc(OCC(=O)NN)c2c1CCC2`, the melting point was 145 to 156 °C.

As to `O[C@H](C1CCCCC1)[C@H](O)C1CCCCC1`, the melting point was in the range of 136 to 141 °C.

In the case of `CC[C@@H]1CCC[C@H]1CC` (relative stereo), the melting point is -95 °C.

Compound `COc1cccc(CC(C)=O)c1` came in with a melting point of 258 to 260 °C.

As to `OCc1cccc(-c2cccs2)c1`, the melting point lay in the range of 46 to 49 °C.

Consider `CC12CCc3c(ccc4cc(O)ccc34)C1(C)CCC2=O` (stereo unspecified), for which the melting point is 261 °C.

Compound `C=C1C2CC(CC2NS(=O)(=O)c2ccc(C)cc2)C1(C)C` (stereo unspecified) had a melting point of 110 to 114 °C.

For `O=C(CBr)c1ccsc1`, the melting point fell in the range of 61 to 62 °C.

Turning to `Cn1cc(Br)c(N)n1`, the melting point is 98 °C.

Take `N#Cc1nccc2ccccc12`: the melting point came to 89 °C.

Compound `OC(CCl)C(O)CCl` (stereo unspecified) came in with a melting point of 126 °C.

Consider `CCCCCCCCCCCC=O`, for which the melting point amounted to 44.5 °C.
